Laboratory results: US20190201414A1, “INHIBITOR OF HEME DEGRADATION FOR USE TO IMPROVE ANTIBIOTIC TREATMENT OF MYCOBACTERIUM TUBERCULOSIS INFECTION” (The United States of America, as represented by the …, priority 2016, published 2019)
≈ marks a conversion by molar mass, not a printed value. Entries after “also recorded” stand apart in the source; their conditions may differ. Like-named read-outs stand apart in the source and are kept apart here.

Key:
[1] = system: M. tuberculosis strain H37Rv; assay: micro-dilution broth MIC99 assay in GAST media; assay type: cell-based; details: for MIC99: read-out: day 28 MIC99; for inhibition of bacterial growth: 28-day period
[2] = system: Mtb-infected bone marrow derived macrophages (BMDM); assay: bacterial load in Mtb-infected bone marrow derived macrophages; assay type: cell-based; details: for effect on SnPPIX-induced reduction in bacillary load: incubated in conjunction with SnPPIX; for number of bacteria: iron donor added alone; for reduction in the number of bacilli: iron chelating agent added to SnPPIX; for intracellular bacterial burden: iron chelating agent alone
[3] = system: GFP-expressing M. tuberculosis/pMSP12; assay: microbe, parasite or virus in culture; assay type: cell-based; details: for MIC: read-out: day 21 MIC95
[4] = system: M. tuberculosis strain H37Rv; assay type: in vivo, mice
M. tuberculosis MhuD = target: T1, M. tuberculosis MhuD (Mycobacterium tuberculosis, UniProt P9WKH3); assay: MhuD heme/SnPPIX degradation assay by UV/vis spectroscopy; assay type: biochemical
T1 construct: His6 (C); made in house; host or cells: Escherichia coli BL21-Gold (DE3)
T1 sequence (P9WKH3 whole entry): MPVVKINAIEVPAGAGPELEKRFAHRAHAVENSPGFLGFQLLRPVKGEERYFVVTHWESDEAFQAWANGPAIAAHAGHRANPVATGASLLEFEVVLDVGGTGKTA

[5] = target: T2, recombinant human HO-1-G139A (hHO-1) (Homo sapiens, UniProt P09601, G139A); assay: heme degradation by recombinant human HO-1-G139A, UV/vis spectroscopy; assay type: biochemical; details: 2 μM SnPPIX, 1 hour
T2 construct: made in house
T2 sequence (P09601 1-288 G139A): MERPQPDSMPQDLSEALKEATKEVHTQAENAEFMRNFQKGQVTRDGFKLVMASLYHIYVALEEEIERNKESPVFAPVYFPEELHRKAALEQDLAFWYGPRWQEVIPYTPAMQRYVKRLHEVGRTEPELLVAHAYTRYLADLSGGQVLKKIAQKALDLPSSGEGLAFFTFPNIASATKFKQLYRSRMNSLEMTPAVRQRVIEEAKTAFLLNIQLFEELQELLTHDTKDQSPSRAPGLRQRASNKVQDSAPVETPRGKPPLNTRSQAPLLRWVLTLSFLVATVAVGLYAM

heme oxygenase = details: comparison SnPPIX vs ZnPPIX; cited from earlier work
[6] = newborns, clinical use; cited from earlier work
[7] = comparison ZnPPIX vs SnPPIX; cited from earlier work

NNC(=O)c1ccncc1 [Isoniazid, reference compound]
MIC99 ([1]; Mycobacterium tuberculosis, H37RV, 672 h, GAST + 10 μM Hemin): 0.1 µM | MIC99 ([1]; Mycobacterium tuberculosis, H37RV, 672 h, GAST medium): 0.1 µM (≈ 0.0137 µg/mL) | MIC99 ([1]; Mycobacterium tuberculosis, H37RV, 672 h, GASTFe medium): 0.2 µM (≈ 0.0274 µg/mL)

[Cl][Fe]([Cl])[Cl] [FeCl3]
effect on SnPPIX-induced reduction in bacillary load [2]: completely inhibited the reduction in bacillary load | number of bacteria [2]: did not significantly enhance the number of bacteria

Cc1ncc(CO)c(C=NNC(=O)c2ccncc2)c1O [PIH, pyridoxal isonicotinoyl hydrazone]
reduction in the number of bacilli [2]: further enhancement in the reduction | intracellular bacterial burden [2]: significant reduction

C=Cc1c(C)c2cc3[nH]c(cc4nc(cc5nc(cc1[nH]2)C(C)=C5CCC(=O)[O-])C(CCC(=O)[O-])=C4C)c(C)c3C=C.[Cl-].[Cl-].[Sn+4] [SnPPIX, tin (IV) protoporphyrin IX dichloride]
inhibition of bacterial growth ([1]; 125 μM, complete (iron-containing) GAST medium): No inhibition of bacterial growth was observed | effect of hemin addition on toxicity in iron-free medium ([1]; 125 μM, iron-free medium plus 10 μM hemin): reversed this effect | inhibition of bacterial growth ([1]; 125 μM, iron-free medium): toxicity was observed | MIC99 ([1]; GAST + 10 μM Hemin): >125 µM | MIC99 ([1]; GAST medium): 125 µM | MIC99 ([1]; GASTFe medium): >125 µM | MIC ([3]; pH 6): >125 µM | inhibition of bacterial growth ([3]; pH 7): no inhibition of bacterial growth was observed | MIC [3]: >125 µM | effect on bacterial load by organ ([4]; C57BL/6, lungs vs mediastinal lymph nodes or spleens): more prominent in the lungs | enhancement of RHZ efficacy ([4]; SnPPIX initiated 6 weeks after initiation of RHZ therapy): failed to enhance RHZ efficacy | bacterial loads ([4]; TCR-α−/− mice, treatment from 4 wpi, euthanized two weeks after initiation): indistinguishable from those of untreated | mycobacterial load ([4]; mouse, in vivo): highly significant reduction | protection / mortality kinetics ([4]; mouse, in vivo): failed to protect | pulmonary bacterial load ([4]; mouse, in vivo): not at 3 wpi; also recorded: no difference in bacterial loads | reduction in pulmonary bacterial loads below untreated infected mice ([4]; mouse, in vivo): ~1 log | bacterial loads in lungs and mediastinal lymph nodes vs non-treated mice ([4]; mouse, in vivo, ip): diminished bacterial loads | pulmonary bacterial load ([4]; mouse, in vivo, ip, 5 mg/kg): highly significant reduction | effect on heme degradation by MhuD (M. tuberculosis MhuD; 2 μM SnPPIX, 5 μM MhuD-heme, 1 hour): does not appear to have an effect | SnPPIX degradation by MhuD (M. tuberculosis MhuD; monitored for 24 hours): no SnPPIX degradation even after 24 hours | heme-degrading activity of HO-1 [5]: blocked | cellular bacterial load ([2]; added alone): reduced cellular bacterial load | heme oxygenase inhibitory capacity (heme oxygenase): higher heme oxygenase inhibitory capacity compared with ZnPPIX | side effects [6]: minimum side effects

c1ccc(-c2ccccn2)nc1 [DP, 2′2′dipyridyl]
reduction in the number of bacilli [2]: further enhancement in the reduction | intracellular bacterial burden [2]: significant reduction

CO[C@H]1/C=C/O[C@@]2(C)Oc3c(C)c(O)c4c(O)c(c(/C=N/N5CCN(C)CC5)c(O)c4c3C2=O)NC(=O)/C(C)=C\C=C\[C@H](C)[C@H](O)[C@@H](C)[C@@H](O)[C@@H](C)[C@H](OC(C)=O)[C@@H]1C [Rifampicin, reference compound]
MIC ([3]; Mycobacterium tuberculosis, 504 h, pH 6): 0.04 µM (≈ 0.0329 µg/mL) | MIC ([3]; Mycobacterium tuberculosis, 504 h): 0.04 µM (≈ 0.0329 µg/mL)

C=CC1=C(C)c2cc3[n-]c(cc4[n-]c(cc5nc(cc1n2)C(C)=C5C=C)c(C)c4CCC(=O)O)c(CCC(=O)O)c3C.[Zn+2] [ZnPPIX, zinc (II) protoporphyrin IX]
solubility [7]: less soluble than SnPPIX

O=S(=O)([O-])[O-].[Fe+2] [FeSO4]
effect on SnPPIX-induced reduction in bacillary load [2]: completely inhibited the reduction in bacillary load | number of bacteria [2]: did not significantly enhance the number of bacteria
